Here are results for 1 molecule from patent publication US20180116993A1, “MODULATORS OF FARNESOID X RECEPTOR AND METHODS FOR THE USE THEREOF” (XIAMEN UNIVERSITY, priority 2015, published 2018).

Test [1] deals with RA-resistant human colon cancer HCT116 cells. The experiment in a line: MTT cell viability assay, HCT116. The test is classed as cell-based. The note with it: 48 h, read-out: Cell viability as a percentage of the cells treated with DMSO, HCT116. Put shortly:
(§1)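 Viability, reported relative to DMSO-treated cells (%), comes from an MTT colorimetric assay after exposure to 20 uM or 40 uM compound. Cells are maintained in DMEM containing 10% fetal bovine serum.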
(In general: Tetrazolium dyes change colour on reduction, which living cells bring about.)

In another test the target is T1, full-length FXR (Homo sapiens, UniProt Q96RI1).
T1 construct: The cells were co-transfected with plasmids encoding full-length FXR and the cognate luciferase reporter EcRE-Luc; expressed in transfected cells; host or cells: COS-7
T1 sequence (Q96RI1 1-486): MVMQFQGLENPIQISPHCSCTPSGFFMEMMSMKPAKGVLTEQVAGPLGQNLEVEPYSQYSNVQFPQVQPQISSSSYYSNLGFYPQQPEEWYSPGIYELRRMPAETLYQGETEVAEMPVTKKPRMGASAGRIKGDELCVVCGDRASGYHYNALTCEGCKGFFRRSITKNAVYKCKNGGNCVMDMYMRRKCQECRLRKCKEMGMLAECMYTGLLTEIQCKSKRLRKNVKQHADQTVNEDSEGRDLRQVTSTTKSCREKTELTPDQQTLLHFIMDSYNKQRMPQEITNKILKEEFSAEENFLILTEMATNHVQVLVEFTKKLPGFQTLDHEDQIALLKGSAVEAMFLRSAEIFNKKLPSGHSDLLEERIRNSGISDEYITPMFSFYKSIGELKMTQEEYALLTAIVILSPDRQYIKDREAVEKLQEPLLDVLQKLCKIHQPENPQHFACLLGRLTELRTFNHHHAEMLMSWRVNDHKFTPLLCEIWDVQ
As to the kind of experiment: Cell-based FXR transactivation, EcRE luciferase reporter in COS-7 cells. The note with it: Table 2. A digest of the protocol:
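COS-7 cells were transiently cotransfected with full-length FXR, EcRE-Luc reporter and a renilla control. Ligands were added 5 h after transfection, and cells were harvested 24 h later. Firefly luciferase was normalized to renilla in a dual-luciferase read-out.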
(In general: Reporter assays use an easily measured gene product as a stand-in for the process of interest.)

The subject of test [2] is human breast cancer MCF7 cells. As to the kind of experiment: MTT cell viability assay, MCF-7. As to conditions: 48 h, read-out: Cell viability as a percentage of the cells treated with DMSO, MCF-7. The test is classed as cell-based. A digest of the protocol: as §1
For another test, the system named is db/db mice. The experiment in a line: Hepatic triglyceride, liver histology, serum ALT and ALP in high-fat diet fed db/db mice. The test is classed as in vivo, mouse. As to conditions: 10 mg/kg once daily for 10 days. Put shortly: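 High-fat diet fed db/db mice aged 8-10 weeks dosed 10 mg/kg compound once daily for 10 days. Liver sections stained with H&E and 0.3% oil red O; hepatic triglyceride measured by tissue assay kit; serum ALP and ALT activities measured by kit.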

For test [3], the system named is inflammatory cytokines in tissues of db/db mice. The experiment in a line: Inflammatory cytokine mRNA levels in tissues of high-fat diet fed db/db mice (RT-PCR). In kind it is in vivo, mouse. As to conditions: 5 mg/kg. An excerpt: In this example, we detected the levels of various inflammatory cytokines including iNOS, IFNγ, TGFβ, TNFα, COX2, IL-1β, IL-6, SAA1, MIP-1α and CD36 in liver, kidney, white adipose tissue (WAT) in various mice models, including wild type mice treated with APAP in example 4, high-fat diet fed diabetic and obesity db/db and KK-Ay mice in example 5, high-fat diet fed wild-type mice in Example 5, as well as in primary hepatocytes with LPS induced inflammation, using RT-PCR.

The target in test [4] is T2, FXR ligand binding domain (LBD) (Homo sapiens, UniProt Q96RI1).
T2 construct: made in house
T2 sequence (Q96RI1 262-486 limits assumed): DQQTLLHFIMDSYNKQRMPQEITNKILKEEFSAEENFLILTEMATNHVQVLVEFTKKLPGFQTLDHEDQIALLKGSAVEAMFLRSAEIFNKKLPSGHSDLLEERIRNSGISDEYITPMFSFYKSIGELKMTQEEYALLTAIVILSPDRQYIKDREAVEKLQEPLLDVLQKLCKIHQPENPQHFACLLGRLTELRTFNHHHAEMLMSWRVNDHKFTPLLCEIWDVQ
As to the kind of experiment: AlphaScreen assay: FXR LBD recruitment of coregulator peptide motifs (SRC2-3, SRC1-2). The note with it: Table 2. The test is classed as biochemical.

The test system of test [5] is human hepatoma HepG2 cells. The experiment in a line: MTT cell viability assay, HepG2. In kind it is cell-based. The note with it: 48 h, read-out: Cell viability as a percentage of the cells treated with DMSO, HepG2. Put shortly: as §1
The subject of test [6] is human cervical carcinoma Hela cells. As to the kind of experiment: MTT cell viability assay, Hela. The test is classed as cell-based. As to conditions: 48 h, read-out: Cell viability as a percentage of the cells treated with DMSO, Hela. A digest of the protocol: as §1
For test [7], the system named is human colorectal adenocarcinoma HCT15 cells. The experiment in a line: MTT cell viability assay, HCT15. In kind it is cell-based. The note with it: 48 h, read-out: Cell viability as a percentage of the cells treated with DMSO, HCT15. A digest of the protocol: as §1

Where two headings read alike, the source gives them in different places. Marks after values point to notes of the source that are not given here. Where only a bound is given, the exact number is not on record here.

The term viability denotes a per cent measure of how many cells are alive, often set against a control. By EC50 is commonly meant the concentration that produces a half-maximal response. For the molecule `COc1cc(C(=O)OC2CCC3CCCCC3C2)ccc1N` (stereo not drawn) [XD-32, decahydro-naphthalen-2-yl 4-amino-3-methoxybenzoate], the viability at 20 µM in test [1] (HCT-116, 20 uM) is 65 ± 7%; in test [2] (20 uM) it was 100 ± 7%; in test [5] (20 uM), 100 ± 7%; in test [6] (20 uM), 73%; in test [7] (HCT-15, 20 uM) it was 80 ± 7%. Further, the viability at 40 µM came out at 53 ± 7% in [1] (HCT-116, 40 uM); 95 ± 7% in test [2] (40 uM); 74 ± 7% in test [5] (40 uM); 30 ± 7% in test [6] (40 uM); 35 ± 7% in test [7] (HCT-15, 40 uM). Moreover, at full-length FXR (5 μM compound, positive: induction, minus: repression), the “Cell-based FXR transactivation Fold changes by 5 μM compound” value was −5. For the same molecule, the EC50 at full-length FXR (EcRE luciferase reporter) is below 1000 nM; in test [4] (SRC1-2 peptide, read-out: EC50 (μM) of FXR binding by AlphaScreen assay recruit SRC1-2), below 1 µM; in test [4] (SRC2-3 peptide, read-out: EC50 (μM) of FXR binding by AlphaScreen assay recruit SRC2-3), below 1 µM. For the same molecule, the “Serum ALP (U/L)” value in the test on db/db mice (vehicle 129 ± 15) was 83 ± 23^a U/L. For the same molecule, the “Serum ALT (U/L)” value with db/db mice (vehicle 377 ± 48, Table 17) is recorded as 110 ± 42^a U/L. Besides, the “mRNA level of iNOS (fold), Liver tissue” value in test [3] (vehicle 1.06 ± 0.14) is recorded as 0.22 ± 0.12^a fold. The “mRNA level of iNOS (fold), Colon tissue” value in [3] (vehicle 1.12 ± 0.23) is recorded as 0.45 ± 0.13^a fold.
